What was measured:
Plasmodium berghei [1] = assay: Antimalarial activity against Plasmodium berghei infected mice (Mus musculus) at 320 mg/kg; toxic in 5 of 5; assay type: functional, organism-based; parameters: dose 320 mg/kg
Plasmodium berghei [2] = assay: Antimalarial activity against Plasmodium berghei infected mice (Mus musculus) at 640 mg/kg; toxic in 5 of 5; assay type: functional, organism-based; parameters: dose 640 mg/kg
Plasmodium berghei [3] = assay: Antimalarial activity as increased MST in Plasmodium berghei infected mice (Mus musculus) at 20 mg/kg; assay type: functional
Plasmodium berghei [4] = assay: Antimalarial activity as increased MST in Plasmodium berghei infected mice (Mus musculus) at 40 mg/kg; Toxic in 1 of 5; assay type: functional
Plasmodium berghei [5] = assay: Increased mean survival time in drug-sensitive Plasmodium berghei infected mice (Mus musculus) at 640 mg/kg; cured 5 of 5; assay type: functional, organism-based; parameters: dose 640 mg/kg
Plasmodium berghei [6] = assay: Increased mean survival time in drug-sensitive Plasmodium berghei infected mice (Mus musculus) at 320 mg/kg; cured 5 of 5; assay type: functional, organism-based; parameters: dose 320 mg/kg
Plasmodium berghei [7] = assay: Increased mean survival time in drug-sensitive Plasmodium berghei infected mice (Mus musculus) at 40 mg/kg dose; assay type: functional
Plasmodium berghei [8] = assay: Increased mean survival time in drug-sensitive Plasmodium berghei infected mice (Mus musculus) at 160 mg/kg; cured 3 of 5; assay type: functional, organism-based; parameters: dose 160 mg/kg
Plasmodium berghei [9] = assay: Increased mean survival time in drug-sensitive Plasmodium berghei infected mice (Mus musculus) at 80 mg/kg; cured 1 of 5; assay type: functional, organism-based; parameters: dose 80 mg/kg
Plasmodium berghei [10] = assay: Increased mean survival time in drug-sensitive Plasmodium berghei infected mice (Mus musculus) at 640 mg/kg; toxic in 5 of 5; assay type: functional, organism-based; parameters: dose 640 mg/kg
Plasmodium berghei [11] = assay: Increased mean survival time in drug-sensitive Plasmodium berghei infected mice (Mus musculus) at 40 mg/kg; toxic in 2 of 5; assay type: functional, organism-based; parameters: dose 40 mg/kg
Plasmodium berghei [12] = assay: Increased mean survival time in drug-sensitive Plasmodium berghei infected mice (Mus musculus) at 160 mg/kg; toxic in 5 of 5; assay type: functional, organism-based; parameters: dose 160 mg/kg
Plasmodium berghei [13] = assay: Increased mean survival time in drug-sensitive Plasmodium berghei in mice (Mus musculus) at 80 mg/kg dose; assay type: functional
Plasmodium berghei [14] = assay: Increased mean survival time in drug-sensitive Plasmodium berghei infected mice (Mus musculus) at 320 mg/kg; cured 3 of 5; assay type: functional, organism-based; parameters: dose 320 mg/kg
Plasmodium berghei [15] = assay: Increased mean survival time in drug-sensitive Plasmodium berghei infected mice (Mus musculus) at 640 mg/kg; cured 2 of 5; assay type: functional, organism-based; parameters: dose 640 mg/kg
Plasmodium berghei [16] = assay: Increased mean survival time in drug-sensitive Plasmodium berghei infected mice (Mus musculus) at 160 mg/kg; cured 1 of 5; assay type: functional, organism-based; parameters: dose 160 mg/kg
Plasmodium berghei [17] = assay: Increased mean survival time in drug-sensitive Plasmodium berghei infected mice (Mus musculus) at 20 mg/kg dose; assay type: functional
Plasmodium berghei [18] = assay: Increased mean survival time in drug-sensitive Plasmodium berghei infected mice (Mus musculus) at 320 mg/kg; toxic in 4 of 5; assay type: functional, organism-based; parameters: dose 320 mg/kg
Plasmodium berghei [19] = assay: Increased mean survival time in drug-sensitive Plasmodium berghei infected mice (Mus musculus) at 640 mg/kg dose; assay type: functional
Plasmodium berghei [20] = assay: Increased mean survival time in drug-sensitive Plasmodium berghei infected mice (Mus musculus) at 160 mg/kg; toxic in 1 of 5; assay type: functional, organism-based; parameters: dose 160 mg/kg
Plasmodium berghei [21] = assay: Increased mean survival time in drug-sensitive Plasmodium berghei infected mice (Mus musculus) at 320 mg/kg; cured 2 of 5; assay type: functional, organism-based; parameters: dose 320 mg/kg
Plasmodium berghei [22] = assay: Increased mean survival time in drug-sensitive Plasmodium berghei infected mice (Mus musculus) at 80 mg/kg; cures 4 of 5; assay type: functional, organism-based; parameters: dose 80 mg/kg
Plasmodium berghei [23] = assay: Increased mean survival time in drug-sensitive Plasmodium berghei infected mice (Mus musculus) at 160 mg/kg; cured 2 of 5; assay type: functional, organism-based; parameters: dose 160 mg/kg
Plasmodium berghei [24] = assay: Increased mean survival time in drug-sensitive Plasmodium berghei infected mice (Mus musculus) at 320 mg/kg; cured 4 of 5
Plasmodium berghei [25] = assay: Increased mean survival time in drug-sensitive Plasmodium berghei infected mice (Mus musculus) at 640 mg/kg; toxic in 4 of 5; assay type: functional
Plasmodium berghei [26] = assay: Increased mean survival time in drug-sensitive Plasmodium berghei infected mice (Mus musculus) at 80 mg/kg; cured 3 of 5; assay type: functional, organism-based; parameters: dose 80 mg/kg
Plasmodium berghei [27] = assay: Increased mean survival time in drug-sensitive Plasmodium berghei infected mice (Mus musculus) at 160 mg/kg; cured 5 of 5; assay type: functional, organism-based; parameters: dose 160 mg/kg
Plasmodium berghei [28] = assay: Increased mean survival time in drug-sensitive Plasmodium berghei infected mice (Mus musculus) at 20 mg/kg; cured 1 of 5; assay type: functional, organism-based; parameters: dose 20 mg/kg
Plasmodium berghei [29] = assay: Increased mean survival time in drug-sensitive Plasmodium berghei infected mice (Mus musculus) at 320 mg/kg dose; assay type: functional
Plasmodium berghei [30] = assay: Increased mean survival time in drug-sensitive Plasmodium berghei infected mice (Mus musculus) at 40 mg/kg; cured 3 of 5; assay type: functional, organism-based; parameters: dose 40 mg/kg
Plasmodium berghei [31] = assay: Increase in mean survival time in drug-sensitive Plasmodium berghei infected mice (Mus musculus) at 160 mg/kg dose; assay type: functional
Plasmodium berghei [32] = assay: Antimalarial activity against Plasmodium berghei infected mice (Mus musculus) at 160 mg/kg; cured 1 of 5; assay type: functional, organism-based; parameters: dose 160 mg/kg
Plasmodium berghei [33] = assay: Antimalarial activity against Plasmodium berghei infected mice (Mus musculus) at 160 mg/kg; toxic in 3 of 5; assay type: functional, organism-based; parameters: dose 160 mg/kg

Q: For `CC(N/N=C(\S)N(C)C)c1ccccn1` (stereo not drawn), which Survival time (Plasmodium berghei [1]) is on record?
A: Toxic in 5 of 5 mice

Q: What about the Survival time (Plasmodium berghei [2]) of the same compound?
A: Toxic in 5 of 5 mice

Q: And the Survival time (Plasmodium berghei [3])?
A: 2 days

Q: And the Survival time (Plasmodium berghei [4])?
A: 3.2 days

Q: Which Survival time (Plasmodium berghei [5]) does the source give for `C/C(=N\N=C(/S)N1CCC(c2ccccc2)CC1)c1ccccn1` here?
A: Cured 5 of 5 mice

Q: What about the Survival time (Plasmodium berghei [6]) of the same compound?
A: Cured 5 of 5 mice

Q: And the Survival time (Plasmodium berghei [7])?
A: 0.4 days

Q: What about the Survival time (Plasmodium berghei [8]) of the same compound?
A: Cured 3 of 5 mice

Q: And the Survival time (Plasmodium berghei [9])?
A: Cured 1 of 5 mice

Q: Which Survival time (Plasmodium berghei [10]) does the source give for `CCOC(=O)N1CCN(/C(S)=N/N=C(\C)c2ccccn2)CC1` here?
A: Toxic in 5 of 5 mice

Q: And the Survival time (Plasmodium berghei [11])?
A: Cured 2 of 5 mice; toxic in 2 of 5 mice

Q: What about the Survival time (Plasmodium berghei [12]) of the same compound?
A: Toxic in 5 of 5 mice

Q: What does the source list for `CC(N/N=C(\[SeH])N1CCCCCC1)c1ccccn1` (stereo not drawn)?
A: Survival time (Plasmodium berghei [13]): 6.1 days; Survival time (Plasmodium berghei [14]): Cured 3 of 5 mice; toxic in 2 of 5 mice; Survival time (Plasmodium berghei [7]): 5.9 days; Survival time (Plasmodium berghei [15]): Cured 2 of 5 mice; toxic in 2 of 5 mice; Survival time (Plasmodium berghei [16]): Cured 1 of 5 mice; Survival time (Plasmodium berghei [17]): 0.3 days

Q: With `CC(N/N=C(\[SeH])N1CC2CCC(CC2)C1)c1ccccn1` (stereo not drawn) as the compound, how does the Survival time (Plasmodium berghei [13]) read?
A: 5.5 days

Q: And the Survival time (Plasmodium berghei [18])?
A: Cured 4 of 5 mice; toxic in 1 of 5 mice

Q: And the Survival time (Plasmodium berghei [7])?
A: 0.5 days

Q: What about the Survival time (Plasmodium berghei [19]) of the same compound?
A: -0.3 days

Q: What about the Survival time (Plasmodium berghei [20]) of the same compound?
A: Cured 2 of 5 mice

Q: What about the Survival time (Plasmodium berghei [17]) of the same compound?
A: -0.3 days

Q: How did the Survival time (Plasmodium berghei [10]) turn out when `C/C(=N\NC(=S)N1CCCC1)c1ccccn1` was run?
A: Toxic in 5 of 5 mice

Q: And the Survival time (Plasmodium berghei [7])?
A: 8.9 days

Q: And the Survival time (Plasmodium berghei [12])?
A: Toxic in 5 of 5 mice

Q: What does the source list for `C/C(=N\NC(=S)N1CCCCCC1)c1ccccn1`?
A: Survival time (Plasmodium berghei [21]): Cured 2 of 5 mice; toxic in 2 of 5 mice; Survival time (Plasmodium berghei [7]): 6.2 days; Survival time (Plasmodium berghei [22]): Cured 4 of 5 mice; Survival time (Plasmodium berghei [15]): Cured 2 of 5 mice; toxic in 3 of 5 mice; Survival time (Plasmodium berghei [8]): Cured 3 of 5 mice; toxic in 1 of 5 mice

Q: `C/C(=N\N=C(/S)N(C)C1CCCCC1)c1ccccn1` was tested. Which Survival time (Plasmodium berghei [13]) did it give?
A: 9.6 days

Q: What about the Survival time (Plasmodium berghei [7]) of the same compound?
A: 3.7 days

Q: What about the Survival time (Plasmodium berghei [19]) of the same compound?
A: 12.1 days

Q: And the Survival time (Plasmodium berghei [23])?
A: Cured 2 of 5 mice

Q: And the Survival time (Plasmodium berghei [24])?
A: Cured 4 of 5 mice

Q: Which results are given for `C/C(=N\N=C(/S)N1CC2CCC(CC2)C1)c1ccccn1`?
A: Survival time (Plasmodium berghei [25]): 0.4 days; Survival time (Plasmodium berghei [26]): Cured 3 of 5 mice; Survival time (Plasmodium berghei [27]): Cured 5 of 5 mice; Survival time (Plasmodium berghei [28]): Cured 1 of 5 mice; Survival time (Plasmodium berghei [29]): 0.2 days; Survival time (Plasmodium berghei [30]): Cured 3 of 5 mice

Q: Which Survival time (Plasmodium berghei [13]) does the source give for `C/C(=N\N=C(/[SeH])N1CCCCCC1)c1ccccn1` here?
A: 4.6 days

Q: What about the Survival time (Plasmodium berghei [21]) of the same compound?
A: Cured 2 of 5 mice

Q: And the Survival time (Plasmodium berghei [7])?
A: 1.7 days

Q: What about the Survival time (Plasmodium berghei [15]) of the same compound?
A: Cured 2 of 5 mice

Q: What about the Survival time (Plasmodium berghei [31]) of the same compound?
A: 7.3 days

Q: What does the source list for `CC(N/N=C(\S)N1CCCC1)c1ccccn1` (stereo not drawn)?
A: Survival time (Plasmodium berghei [7]): 5.2 days; Survival time (Plasmodium berghei [32]): Cured 1 of 5 mice; Survival time (Plasmodium berghei [33]): Toxic in 3 of 5 mice; Survival time (Plasmodium berghei [2]): Toxic in 5 of 5 mice; Survival time (Plasmodium berghei [17]): 1.3 days
